ChEMBL document CHEMBL5550092, “Synthesis and biological evaluation of triazolones/oxadiazolones as novel urease inhibitors” (Bioorg Med Chem, 2024)
pIC50, pKi: −log10 of the molar value. Blank lines part the entries; values can stand above or below the compound they belong to. Activity calls are given as the source filed them. No cut-off for these calls is given here.

Columns and labels:
[1] = target: Urease subunit alpha/Urease subunit beta (Helicobacter pylori (strain ATCC 700392 / 26695) (Campylobacterpylori), UniProt P69996); assay: (§1) Inhibition of Helicobacter pylori urease using urea as substrate assessed as decrease in ammonia production incubated for 0.5 hrs by indole phenol method; format: protein-complex assay
Sequence of Urease subunit alpha/Urease subunit beta (P69996 whole entry): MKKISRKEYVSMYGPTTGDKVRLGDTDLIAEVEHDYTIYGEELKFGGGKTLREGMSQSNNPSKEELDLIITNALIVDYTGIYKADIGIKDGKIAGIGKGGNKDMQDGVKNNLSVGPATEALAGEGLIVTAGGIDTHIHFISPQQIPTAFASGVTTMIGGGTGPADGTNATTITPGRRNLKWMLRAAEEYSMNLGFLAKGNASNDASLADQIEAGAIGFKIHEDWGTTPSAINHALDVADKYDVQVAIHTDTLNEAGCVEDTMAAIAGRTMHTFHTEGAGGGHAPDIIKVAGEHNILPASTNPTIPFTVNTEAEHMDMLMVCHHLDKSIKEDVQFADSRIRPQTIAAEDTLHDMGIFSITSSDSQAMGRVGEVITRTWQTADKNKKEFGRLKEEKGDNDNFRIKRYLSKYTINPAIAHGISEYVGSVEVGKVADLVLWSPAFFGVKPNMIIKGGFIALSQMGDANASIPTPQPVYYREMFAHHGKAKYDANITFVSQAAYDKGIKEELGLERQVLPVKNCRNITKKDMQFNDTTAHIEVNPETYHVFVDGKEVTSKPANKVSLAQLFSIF
Sequence of Urease subunit alpha/Urease subunit beta (P14916 whole entry, further chain): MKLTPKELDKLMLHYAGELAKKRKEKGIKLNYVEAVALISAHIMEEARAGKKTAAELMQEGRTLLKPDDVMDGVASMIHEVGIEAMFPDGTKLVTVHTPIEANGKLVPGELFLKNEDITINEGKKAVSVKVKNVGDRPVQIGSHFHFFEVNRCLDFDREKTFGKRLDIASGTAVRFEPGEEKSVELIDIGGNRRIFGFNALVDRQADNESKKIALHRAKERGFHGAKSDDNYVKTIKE

[2] = target: T1, Urease subunit alpha/Urease subunit beta (Helicobacter pylori (strain ATCC 700392 / 26695) (Campylobacterpylori)) (UniProt P69996+P14916); assay: as §1; format: protein-complex assay
T1 sequence (P14916 whole entry, looked up): as the sequence (P14916 whole entry, further chain) above
T1 sequence (P69996 whole entry, looked up): as the sequence (P69996 whole entry) above

[3] = Cytotoxicity against human HepG2 cells assessed as cell viability at 250 ug/ml incubated for 72 hrs by CCK8 assay relative to control; format: toxicity, cell-based; settings: at 250 µg/mL, read-out: Activity
[4] = Cytotoxicity against human L02 cells assessed as cell viability at 250 ug/ml incubated for 72 hrs by CCK8 assay relative to control; format: toxicity, cell-based; settings: at 250 µg/mL, read-out: Activity
[5] = Cytotoxicity against human K562 cells assessed as cell viability at 250 ug/ml incubated for 72 hrs by CCK8 assay relative to control; format: toxicity, cell-based; settings: at 250 µg/mL, read-out: Activity
[6] = Cytotoxicity against human SGC-7901 cells assessed as cell viability at 250 ug/ml incubated for 72 hrs by CCK8 assay relative to control; format: toxicity, cell-based; settings: at 250 µg/mL, read-out: Activity
[7] = target: T1, Urease subunit alpha/Urease subunit beta (Helicobacter pylori (strain ATCC 700392 / 26695) (Campylobacterpylori)); assay: Inhibition of urease using urea as substrate assessed as decrease in ammonia production at 800 ug/ml preincubated for 100 min by indole phenol method; format: protein-complex assay; settings: dose 800.0 µg/ml
[8] = target: T1, Urease subunit alpha/Urease subunit beta (Helicobacter pylori (strain ATCC 700392 / 26695) (Campylobacterpylori)); assay: Inhibition of urease using urea as substrate assessed as decrease in ammonia production at 800 ug/ml by indole phenol method; format: protein-complex assay; settings: dose 800.0 µg/ml, time <= 120.0 min

Compound: Cc1ccc(N2CC(Cc3n[nH]c(=O)o3)OC2=O)cc1C (configuration not stated)
- inhibition [2]: inactive

Compound: CCc1ccc(N2CC(Cc3n[nH]c(=O)o3)OC2=O)cc1 (configuration not stated)
- pIC50 [1]: 4.34

Compound: Cc1cc(C)cc(N2CC(c3n[nH]c(=O)o3)OC2=O)c1 (configuration not stated)
- inhibition [2]: inactive

Compound: Cc1ccccc1N1CC(c2n[nH]c(=O)o2)OC1=O (configuration not stated)
- pIC50 [1]: 3.73

Compound: COc1ccc(N2CC(Cc3n[nH]c(=O)o3)OC2=O)cc1 (configuration not stated)
- inhibition [2]: inactive

Compound: O=C1OC(c2n[nH]c(=O)o2)CN1c1ccc(OCc2ccccc2)cc1 (configuration not stated)
- pIC50 [1]: 4.14

Compound: CC(C)(C)c1ccc(N2CC(Cc3n[nH]c(=O)o3)OC2=O)cc1 (configuration not stated)
- pIC50 [1]: 4.25

Compound: CCc1cccc(N2CC(c3n[nH]c(=O)o3)OC2=O)c1 (configuration not stated)
- pIC50 [1]: 3.82

Compound: Cc1ccc(N2CC(c3n[nH]c(=O)o3)OC2=O)cc1 (configuration not stated)
- inhibition [2]: inactive

Compound: CCc1cccc(N2CC(Cc3n[nH]c(=O)o3)OC2=O)c1 (configuration not stated)
- viability at 72 h, 250 ug/ml [3]: 93.1%
- viability at 72 h, 250 ug/ml [4]: 98.7%
- viability at 72 h, 250 ug/ml [5]: 95.3%
- viability at 72 h, 250 ug/ml [6]: 89.3%
- pIC50 [1]: 4.66

Compound: O=C1OC(Cc2n[nH]c(=O)o2)CN1c1ccccc1OCc1ccccc1 (configuration not stated)
- viability at 72 h, 250 ug/ml [3]: 91.5%
- viability at 72 h, 250 ug/ml [4]: 96.5%
- inhibition [7]: Active
- viability at 72 h, 250 ug/ml [5]: 93.8%
- viability at 72 h, 250 ug/ml [6]: 94.6%
- inhibition [8]: Dose-Dependent Effect
- pIC50 [1]: 5.92
- pKi [1]: 6.62

Compound: Cc1ccc(N2CC(c3n[nH]c(=O)o3)OC2=O)c(C)c1 (configuration not stated)
- pIC50 [1]: 4.01

Compound: CC(C)c1ccc(N2CC(Cc3n[nH]c(=O)o3)OC2=O)cc1 (configuration not stated)
- viability at 72 h, 250 ug/ml [3]: 89.3%
- viability at 72 h, 250 ug/ml [4]: 96.2%
- viability at 72 h, 250 ug/ml [5]: 88.9%
- viability at 72 h, 250 ug/ml [6]: 90.7%
- pIC50 [1]: 4.61

Compound: CCOc1ccc(N2CC(c3n[nH]c(=O)o3)OC2=O)cc1 (configuration not stated)
- pIC50 [1]: 3.94

Compound: O=C1OC(c2n[nH]c(=O)o2)CN1c1cccc(OCc2ccccc2)c1 (configuration not stated)
- viability at 72 h, 250 ug/ml [3]: 92.4%
- viability at 72 h, 250 ug/ml [4]: 98.8%
- viability at 72 h, 250 ug/ml [5]: 90.7%
- viability at 72 h, 250 ug/ml [6]: 87.6%
- pIC50 [1]: 4.68

Compound: CCOc1ccc(N2CC(Cc3n[nH]c(=O)o3)OC2=O)cc1 (configuration not stated)
- pIC50 [1]: 4.21

Compound: Cc1ccc(N2CC(Cc3n[nH]c(=O)o3)OC2=O)cc1 (configuration not stated)
- inhibition [2]: inactive

Compound: CCc1ccc(N2CC(c3n[nH]c(=O)o3)OC2=O)cc1 (configuration not stated)
- pIC50 [1]: 3.79

Compound: Cc1cc(C)cc(N2CC(Cc3n[nH]c(=O)o3)OC2=O)c1 (configuration not stated)
- viability at 72 h, 250 ug/ml [3]: 90.8%
- viability at 72 h, 250 ug/ml [4]: 98%
- viability at 72 h, 250 ug/ml [5]: 92.7%
- viability at 72 h, 250 ug/ml [6]: 92.5%
- pIC50 [1]: 4.99
- pKi [1]: 5.17

Compound: O=C1OC(c2n[nH]c(=O)o2)CN1c1ccccc1 (configuration not stated)
- inhibition [2]: inactive

Compound: Cc1cccc(N2CC(c3n[nH]c(=O)o3)OC2=O)c1 (configuration not stated)
- inhibition [2]: inactive

Compound: CCc1ccccc1N1CC(c2n[nH]c(=O)o2)OC1=O (configuration not stated)
- pIC50 [1]: 3.99

Compound: Cc1cccc(N2CC(Cc3n[nH]c(=O)o3)OC2=O)c1 (configuration not stated)
- pIC50 [1]: 4.51

Compound: COc1cccc(N2CC(c3n[nH]c(=O)o3)OC2=O)c1 (configuration not stated)
- pIC50 [1]: 3.97

Compound: O=C1OC(Cc2n[nH]c(=O)o2)CN1c1cccc(OCc2ccccc2)c1 (configuration not stated)
- viability at 72 h, 250 ug/ml [3]: 94.2%
- viability at 72 h, 250 ug/ml [4]: 94.9%
- viability at 72 h, 250 ug/ml [5]: 90.5%
- viability at 72 h, 250 ug/ml [6]: 90.2%
- pIC50 [1]: 4.72

Compound: O=C1OC(Cc2n[nH]c(=O)o2)CN1c1ccccc1 (configuration not stated)
- pIC50 [1]: 4.19

Compound: COc1ccc(N2CC(c3n[nH]c(=O)o3)OC2=O)cc1 (configuration not stated)
- inhibition [2]: inactive

Compound: O=C1OC(Cc2n[nH]c(=O)o2)CN1c1ccc(OCc2ccccc2)cc1 (configuration not stated)
- pIC50 [1]: 4.34

Second part, led by results:

- pIC50 [1]: 4.41
Compound: CCOc1ccccc1NCC(O)c1n[nH]c(=O)[nH]1 (configuration not stated)

- inhibition [2]: inactive
Compound: COc1cccc(NCC(O)c2n[nH]c(=O)[nH]2)c1 (configuration not stated)

- pIC50 [1]: 4.51
Compound: Cc1cc(C)cc(NCC(O)c2n[nH]c(=O)[nH]2)c1 (configuration not stated)

- pIC50 [1]: 4.03
Compound: Cc1ccccc1NCC(O)c1n[nH]c(=O)[nH]1 (configuration not stated)

- pIC50 [1]: 5.20
- pKi [1]: 5.65
Compound: O=c1[nH]nc(C(O)CNc2cccc(OCc3ccccc3)c2)[nH]1 (configuration not stated)
- viability at 72 h, 250 ug/ml [3]: 90.3%
- viability at 72 h, 250 ug/ml [4]: 95.4%
- viability at 72 h, 250 ug/ml [5]: 91.6%
- viability at 72 h, 250 ug/ml [6]: 93.4%

- pIC50 [1]: 4.04
Compound: CCc1cccc(NCC(O)c2n[nH]c(=O)[nH]2)c1 (configuration not stated)

- pIC50 [1]: 4.06
Compound: Cc1ccc(NCC(O)c2n[nH]c(=O)[nH]2)c(C)c1 (configuration not stated)

- pIC50 [1]: 3.97
Compound: Cc1cccc(NCC(O)c2n[nH]c(=O)[nH]2)c1 (configuration not stated)

- pIC50 [1]: 4.07
Compound: O=c1[nH]nc(C(O)CNc2ccccc2)[nH]1 (configuration not stated)

- pIC50 [1]: 3.96
Compound: CCc1ccc(NCC(O)c2n[nH]c(=O)[nH]2)cc1 (configuration not stated)

- pIC50 [1]: 4.40
Compound: CC(C)(C)c1ccc(NCC(O)c2n[nH]c(=O)[nH]2)cc1 (configuration not stated)

- inhibition [2]: inactive
Compound: COc1ccc(NCC(O)c2n[nH]c(=O)[nH]2)cc1 (configuration not stated)

- pIC50 [1]: 4.67
Compound: O=c1[nH]nc(C(O)CNc2ccc(OCc3ccccc3)cc2)[nH]1 (configuration not stated)
- viability at 72 h, 250 ug/ml [3]: 89.3%
- viability at 72 h, 250 ug/ml [4]: 94.7%
- viability at 72 h, 250 ug/ml [5]: 89.8%
- viability at 72 h, 250 ug/ml [6]: 94.2%

- inhibition [2]: inactive
Compound: Cc1ccc(NCC(O)c2n[nH]c(=O)[nH]2)cc1 (configuration not stated)

- pIC50 [1]: 4.33
Compound: CCOc1ccc(NCC(O)c2n[nH]c(=O)[nH]2)cc1 (configuration not stated)

- pIC50 [1]: 4.20
Compound: CCc1ccccc1NCC(O)c1n[nH]c(=O)[nH]1 (configuration not stated)

- pIC50 [1]: 4.29
Compound: CC(C)c1ccc(NCC(O)c2n[nH]c(=O)[nH]2)cc1 (configuration not stated)
